Experimental data published in patent US20220378923A1, “BET DEGRADER” (KYOWA KIRIN CO., LTD., priority 2019, published 2022).

system: SU-DHL-4 cells; assay: Inhibitory effect on cell viability in SU-DHL-4 cell line (Test Example 1); type: cell-based, human; conditions: Homo sapiens; SU-DHL-4 cells, 72 hours, Cell Counting Kit-8; concentration showing 90% inhibition of cell viability; read-out: SU-DHL-4 Cell Viability Inhibition Rate IC90
In short: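 SU-DHL-4 cells were grown at 37° C. under 5% CO2 in RPMI1640 with 10 vol % heat-inactivated FBS plus penicillin/streptomycin, seeded and precultured for 18 to 25 hours, then exposed to test compound at 0.1 vol % DMSO for 72 hours. Viability was read with Cell Counting Kit-8 by absorbance at 450 nm.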

Row | SMILES | IC90 [nM]
1 | CCC(=O)N1c2ccccc2[C@H](Nc2ccc(NC(=O)C3CN(C(=O)c4ccc(OCCN5CCN(C)C(=O)[C@H]5C)cc4)C3)cc2)C[C@@H]1C [Compound 16a, 1-(4-(2-((R)-2,4-Dimethyl-3-oxopiperazin-1-yl)ethoxy)benzoyl)-N-(4-(((2S,4R)-2-methyl-1-propionyl-1,2,3,4-tetrahydroquinolin-4-yl)amino)phenyl)azetidine-3-carboxamide] | 11.1
2 | CCC(=O)N1c2ccccc2[C@H](Nc2ccc(-c3nnc(CNC(=O)c4ccc(OCCN5CCN(C)C(=O)[C@H]5C)cc4)o3)cc2)C[C@@H]1C [Compound 16b, 4-(2-((R)-2,4-Dimethyl-3-oxopiperazin-1-yl)ethoxy)-N-((5-(4-(((2S,4R)-2-methyl-1-propionyl-1,2,3,4-tetrahydroquinolin-4-yl)amino)phenyl)-1,3,4-oxadiazol-2-yl)methyl)benzamide] | 2.05
3 | CCC(=O)N1c2ccccc2[C@H](Nc2ccc(-c3nnc(CNC(=O)N4CCN(Cc5cc(O)cc(-c6c(C)noc6C)c5)CC4)o3)cc2)C[C@@H]1C [Compound 16c, 4-(3-(3,5-Dimethylisoxazol-4-yl)-5-hydroxybenzyl)-N-((5-(4-(((2S,4R)-2-methyl-1-propionyl-1,2,3,4-tetrahydroquinolin-4-yl)amino)phenyl)-1,3,4-oxadiazol-2-yl)methyl)piperazine-1-carboxamide] | 0.28
4 | CCC(=O)N1c2ccccc2[C@H](Nc2ccc(-n3cc(CNC(=O)C4CCN(Cc5cc(O)cc(-c6c(C)noc6C)c5)CC4)nn3)cc2)C[C@@H]1C [Compound 16d, 1-(3-(3,5-Dimethylisoxazol-4-yl)-5-hydroxybenzyl)-N-((1-(4-(((2S,4R)-2-methyl-1-propionyl-1,2,3,4-tetrahydroquinolin-4-yl)amino)phenyl)-1H-1,2,3-triazol-4-yl)methyl)piperidine-4-carboxamide] | 0.17
5 | CCC(=O)N1c2ccccc2[C@H](Nc2ccc(NC(=O)CCCC(=O)Nc3ccc(OCCN4CCN(C)C(=O)[C@H]4C)cc3)cc2)C[C@@H]1C [Compound 16e, N^1-(4-(2-((R)-2,4-Dimethyl-3-oxopiperazin-1-yl)ethoxy)phenyl)-N5-(4-(((2S,4R)-2-methyl-1-propionyl-1,2,3,4-tetrahydroquinolin-4-yl)amino)phenyl)glutaramide] | 5.97
6 | CCC(=O)N1c2ccccc2[C@H](Nc2ccc(NC(=O)CCCC(=O)NC3CC4(C3)CN(Cc3cc(O)cc(-c5c(C)noc5C)c3)C4)cc2)C[C@@H]1C [Compound 16g, N^1-(2-(3-(3,5-Dimethylisoxazol-4-yl)-5-hydroxybenzyl)-2-azaspiro[3.3]heptan-6-yl)-N5-(4-(((2S,4R)-2-methyl-1-propionyl-1,2,3,4-tetrahydroquinolin-4-yl)amino)phenyl)glutaramide] | 14.9
7 | CCC(=O)N1c2ccccc2[C@H](Nc2ccc(NC(=O)CCCC(=O)NC3CCN(Cc4ccccc4-c4cn(C)c(=O)cc4OC)CC3)cc2)C[C@@H]1C [Compound 16h, N^1-(1-(2-(4-Methoxy-1-methyl-6-oxo-1,6-dihydropyridin-3-yl)benzyl)piperidin-4-yl)-N5-(4-(((2S,4R)-2-methyl-1-propionyl-1,2,3,4-tetrahydroquinolin-4-yl)amino)phenyl)glutaramide] | 68.4
8 | CCC(=O)N1c2ccccc2[C@H](Nc2ccc(NC(=O)CCCC(=O)NC34CC(NCc5cc(O)cc(-c6c(C)noc6C)c5)(C3)C4)cc2)C[C@@H]1C [Compound 16i, N^1-(3-((3-(3,5-Dimethylisoxazol-4-yl)-5-hydroxybenzyl)amino)bicyclo[1.1.1]pentan-1-yl)-N5-(4-(((2S,4R)-2-methyl-1-propionyl-1,2,3,4-tetrahydroquinolin-4-yl)amino)phenyl)glutaramide] | 7.84
9 | CCC(=O)N1c2ccccc2[C@H](Nc2ccc(NC(=O)CCCC(=O)Nc3ccc(Oc4ccccc4-c4cn(C)c(=O)cc4OC)cc3)cc2)C[C@@H]1C [Compound 16k, N^1-(4-(2-(4-Methoxy-1-methyl-6-oxo-1,6-dihydropyridin-3-yl)phenoxy)phenyl)-N5-(4-(((2S,4R)-2-methyl-1-propionyl-1,2,3,4-tetrahydroquinolin-4-yl)amino)phenyl)glutaramide] | 0.9

same assay, conditions: SU-DHL-4 cells, 72 hours, Cell Counting Kit-8; concentration showing 90% inhibition of cell viability; read-out: SU-DHL-4 Cell Viability Inhibition Rate IC90

Row | IC90 [nM] | SMILES
10 | 24.6 | CCC(=O)N1c2ccccc2[C@H](Nc2ccc(NC(=O)CCCC(=O)NC3CCCN(Cc4ccc(NS(=O)(=O)CC)cc4-c4cn(C)c(=O)cc4OC)C3)cc2)C[C@@H]1C (stereo partly drawn) [Compound 16f, N^1-(1-(4-(Ethylsulfonamide)-2-(4-methoxy-1-methyl-6-oxo-1,6-dihydropyridin-3-yl)benzyl)piperidin-3-yl)-N5-(4-(((2S,4R)-2-methyl-1-propionyl-1,2,3,4-tetrahydroquinolin-4-yl)amino)phenyl)glutaramide]
11 | 89.8 | CCC(=O)N1c2ccccc2[C@H](Nc2ccc(NC(=O)CCCC(=O)NC3CCC(Oc4ccc(NS(=O)(=O)CC)cc4-c4cn(C)c(=O)cc4OC)CC3)cc2)C[C@@H]1C (stereo partly drawn) [Compound 16l, N^1-((1r,4r)-4-(4-(Ethylsulfonamide)-2-(4-methoxy-1-methyl-6-oxo-1,6-dihydropyridin-3-yl)phenoxy)cyclohexyl)-N5-(4-(((2S,4R)-2-methyl-1-propionyl-1,2,3,4-tetrahydroquinolin-4-yl)amino)phenyl)glutaramide]
12 | 0.48 | CCC(=O)N1c2ccccc2[C@H](Nc2ccc(-n3cc(CNC(=O)c4cccc(Oc5ccc(NS(=O)(=O)CC)cc5-c5cn(C)c(=O)cc5OC)c4)nn3)cc2)C[C@@H]1C [Compound 16n, 3-(4-(Ethylsulfonamide)-2-(4-methoxy-1-methyl-6-oxo-1,6-dihydropyridin-3-yl)phenoxy)-N-((1-(4-(((2S,4R)-2-methyl-1-propionyl-1,2,3,4-tetrahydroquinolin-4-yl)amino)phenyl)-1H-1,2,3-triazol-4-yl)methyl)benzamide]

Second part, the compound before the results:

Row | SMILES | IC90 [nM]
13 | CCNC(=O)C[C@@H]1N=C(c2ccc(C(=O)NCCCNC(=O)c3ccc(N[C@@H]4C[C@H](C)N(C(=O)CC)c5ccccc54)cc3)cc2)c2c(sc(C)c2C)-n2c(C)nnc21 [Compound 13e, 4-((S)-6-(2-(Ethylamino)-2-oxoethyl)-2,3,9-trimethyl-6H-thieno[3,2-f][1,2,4]triazolo[4,3-a][1,4]diazepin-4-yl)-N-(3-(4-(((2S,4R)-2-methyl-1-propionyl-1,2,3,4-tetrahydroquinolin-4-yl)amino)benzamide)propyl)benzamide] | 3.33
14 | CCC(=O)N1c2ccccc2[C@H](Nc2ccc(C(=O)NCCCNC(=O)c3ccc(C4=N[C@@H](CC(=O)N5CCN(CCO)CC5)c5nnc(C)n5-c5sc(C)c(C)c54)cc3)cc2)C[C@@H]1C [Compound 13f, 4-((S)-6-(2-(4-(2-Hydroxyethyl)piperazin-1-yl)-2-oxoethyl)-2,3,9-trimethyl-6H-thieno[3,2-f][1,2,4]triazolo[4,3-a][1,4]diazepin-4-yl)-N-(3-(4-(((2S,4R)-2-methyl-1-propionyl-1,2,3,4-tetrahydroquinolin-4-yl)amino)benzamide)propyl)benzamide] | 11.6
15 | CCC(=O)N1c2ccccc2[C@H](Nc2ccc(C(=O)NCCCNC(=O)c3ccc(C4=N[C@@H](CC(=O)OCCO)c5nnc(C)n5-c5sc(C)c(C)c54)cc3)cc2)C[C@@H]1C [Compound 13g, 2-Hydroxyethyl 2-((S)-2,3,9-trimethyl-4-(4-((3-(4-(((2S,4R)-2-methyl-1-propionyl-1,2,3,4-tetrahydroquinolin-4-yl)amino)benzamide)propyl)carbamoyl)phenyl)-6H-thieno[3,2-f][1,2,4]triazolo[4,3-a][1,4]diazepin-6-yl)acetate] | 1.7
16 | CCC(=O)N1c2ccccc2[C@H](Nc2ccc(C(=O)NC3CCN(C(=O)c4ccc(C5=N[C@@H](CC(=O)OC(C)(C)C)c6nnc(C)n6-c6sc(C)c(C)c65)cc4)CC3)cc2)C[C@@H]1C [Compound 13j, tert-Butyl 2-((S)-2,3,9-trimethyl-4-(4-(4-(4-(((2S,4R)-2-methyl-1-propionyl-1,2,3,4-tetrahydroquinolin-4-yl)amino)benzamide)piperidine-1-carbonyl)phenyl)-6H-thieno[3,2-f][1,2,4]triazolo[4,3-a][1,4]diazepin-6-yl)acetate] | 0.31
17 | CCC(=O)N1c2ccccc2[C@H](Nc2ccc(C(=O)NCC(=O)CNC(=O)c3ccc(C4=NCc5nnc(C)n5-c5sc(C)c(C)c54)cc3)cc2)C[C@@H]1C [Compound 14l, 4-(((2S,4R)-2-Methyl-1-propionyl-1,2,3,4-tetrahydroquinolin-4-yl)amino)-N-(2-oxo-3-(4-(2,3,9-trimethyl-6H-thieno[3,2-f][1,2,4]triazolo[4,3-a][1,4]diazepin-4-yl)benzamide)propyl)benzamide] | 0.6
18 | CCC(=O)N1c2ccccc2[C@H](Nc2ccc(C(=O)NCCCNC(=O)c3ccc(Cn4c(C(=O)OCCN(C)C)cc5c4CCCC5=O)cc3)cc2)C[C@@H]1C [Compound 15e, 2-(Dimethylamino)ethyl 1-(4-((3-(4-(((2S,4R)-2-methyl-1-propionyl-1,2,3,4-tetrahydroquinolin-4-yl)amino)benzamide)propyl)carbamoyl)benzyl)-4-oxo-4,5,6,7-tetrahydro-1H-indole-2-carboxylate] | 34
19 | CCC(=O)N1c2ccccc2[C@H](Nc2ccc(C(=O)NCCCNC(=O)c3ccc(Cn4c(C(=O)OC)cc5c4CCCC5=O)cc3)cc2)C[C@@H]1C [Compound 15g, Methyl 1-(4-((3-(4-(((2S,4R)-2-methyl-1-propionyl-1,2,3,4-tetrahydroquinolin-4-yl)amino)benzamide)propyl)carbamoyl)benzyl)-4-oxo-4,5,6,7-tetrahydro-1H-indole-2-carboxylate] | 5.03
20 | CCC(=O)N1c2ccccc2[C@H](Nc2ccc(NC(=O)CCCC(=O)Nc3ccc(Cn4c(CC)cc5c4CCCC5=O)cc3)cc2)C[C@@H]1C [Compound 15i] | 0.88
